Experimental data published in US6592845B2, “Estrogens for treating ALS” (Parker Hughes Institute, priority 1999, dated 2003).

Test system: Heterozygous transgenic mice carrying the human SOD-1 (G93A)
Assay: Murine model of familial ALS (FALS): monitoring for limb paralysis and death, life-table analysis
Assay type: in vivo
Settings: 16 mg/kg twice a day, everyday except weekends
Procedure: Heterozygous transgenic mice carrying the human SOD-1 (G93A) were obtained from Jackson Laboratory (Bar Harbor, Me., USA). These mice were monitored everyday for limbic paralysis and death. Onset of FALS was defined as the first day upon which limbic paralysis was observed. Life-table analysis was performed using Statview, Abacus Concepts, Inc. (Berkeley, Calif.).
There are currently several transgenic animal models of ALS (Borchelt et al., 1998, Transgenic mouse models of Alzheimer's disease and amyotrophic lateral sclerosis, Brain Pathology, 8: 735-757). The G93A HuSOD1 is a well established animal model of familial ALS which has been described previously in detail (Dal Canto M C, Gurney Me., 1994, The development of central nervous system pathology in a murine transgenic model of human amyotrophic lateral sclerosis. Am J. Pathol 145: 1-9; Gurney et al., 1994, Motor neuron degeneration in mice that express a human Cu,Zn superoxide dismutase mutation, Science 264:1772-1775). Levels of SOD1 activity are elevated to about five times above that of endogenous SOD 1 in these mice. In this model, the mice develop hind limb weakness, a coarse coat, poor grooming, and reduced stride length at about 3 months of age. By five months of age, a majority of the mice are moribund.
Heterozygous transgenic mice carrying the human SOD-1 (G93A) were obtained from Jackson Laboratory (Bar Harbor, Me., USA). The mice were treated either with vehicle or genistein at 16 mg/kg twice a day, everyday, except on weekends. The mice were monitored everyday for limb paralysis and death. Onset of FALS was defined as the first day upon which limbic paralysis was observed. Life-table analysis was performed using Statview, Abacus Concepts, Inc. (Berkeley, Calif.). […]
The ability of 4-(4′-hydroxylphenyl)-amino-6,7-dimethoxyquinazoline (P131) and 2,4,4′-trihydroxy deoxybenzoin (DDE-17) to protect against neural degeneration in familial ALS was evaluated using the methods described above for Example 2. […]

[1] = male FALS mice, compared with vehicle-treated males

Structure (SMILES): O=c1c(-c2ccc(O)cc2)coc2cc(O)cc(O)c12 [Genistein, genistein]
- disease onset (first day upon which limbic paralysis was observed) (female FALS mice, compared with untreated (vehicle) females): did not exhibit a delay
- disease onset (first day upon which limbic paralysis was observed) [1]: delayed
- mortality [1]: delayed
